Structures are written as SMILES. Read-outs that look alike come from different tables or passages of the source.

The nature of data set [1]: Acute toxicity (50% lethal dose, determined graphically). The class given is in vivo, mice (CDl). The following applies: mouse, in vivo, CDl mice. As to the method: (§1) Acute toxicity: the experiments were carried out on CDl mice of average weight 20 g. The 50% lethal dose (LD 50) was determined graphically.
Data set [2] concerns CDl mice. Described as above. The class given is in vivo. As to the method: as §1
Data set [3] deals with rats. Kind of data set: Anorexia-inducing action, food consumption of female SJ (Janvier) rats. The class given is in vivo. Conditions: for ED50: Rattus norvegicus, female SJ (Janvier) rats, oral, 1 hour before distribution of food. As to the method: (§2) The experiment was carried out by administering each compound orally at several doses to batches of 8 animals per dose, 1 hour before the distribution of the food, and graphically determining the 50% active doses (AD 50 = dose capable of reducing the food consumption by 50%).

Data set [4] concerns rats. The experiment in a line: Anorexia-inducing action, food consumption of male Charles River rats, 1 hour and 6 hours after administration. The class given is in vivo. Conditions: Rattus norvegicus, oral. As to the method:
as §2
The AD 50 (i.e. the dose which reduces food consumption by 50% compared with untreated controls) was also determined, in the same way as that described above, on male `Charles River` rats, 1 hour and 6 hours after administration of the compounds under test.

Data set [5] deals with CD1 mice. The experiment in a line: Conventional actimetry test (motility). The class given is in vivo.
[6] abbreviates: intravenous, read-out: Acute toxicity LD 50, intravenous administration.
Where [7] appears, read: oral, read-out: Acute toxicity LD 50, oral administration.
Where [8] appears, read: 1st series, read-out: Anorexia-inducing action AD 50, administered orally, 1st series.
The mark [9] stands for this setting: 2nd series, read-out: Anorexia-inducing action AD 50, administered orally, 2nd series.
The mark [10] stands for this setting: after 1 hour, read-out: Anorexia-inducing Action AD 50 orally after 1 hour.
Setting [11] is: after 6 hours, read-out: Anorexia-inducing Action AD 50 orally after 6 hours.

`Fc1ccc(N2CCNCC2)cc1SC(F)(F)F` [SLC-298, 1-(4-fluoro-3-trifluoromethylthiophenyl)-piperazine]: the LD50 is 60 mg/kg in data set [1] (setting [6]) and 150 mg/kg in data set [1] (setting [7]). Also, the toxicity result in data set [2] (overall conclusion) is “moderate”. Also, the therapeutic index result in data set [2] (overall conclusion from LD 50 and AD 50) is on record as “high”. In addition, the ED50 stood at 1.5 mg/kg in data set [3] (setting [8]), 1.8 mg/kg in data set [3] (setting [9]), 1.9 mg/kg in data set [4] (setting [10]) and 2.7 mg/kg in data set [4] (setting [11]). The “anorexia-inducing activity compared with the reference compounds” value in data set [3] (overall conclusion from Tables I and II) is recorded as “more active as an anorexia-inducing agent than the reference compounds”. For the same compound, the “motor activity at higher doses” value in data set [5] (CD1 mice, 20 mg/kg) is “reduces the motor activity”. Besides, the “motility at a low dose” value in data set [5] (CD1 mice, up to 5 mg/kg) is on record as “only very slightly increases the motility”. Also, the stimulant effect entry in data set [5] (overall conclusion) is “little or no stimulant effect”.

On to `Fc1ccc(N2CCNCC2)cc1C(F)(F)F` [SLC-001, 1-(4-fluoro-3-trifluoromethyl-phenyl)-piperazine, reference compound], for which the LD50 in data set [1] (setting [6]) came to 59 mg/kg; in data set [1] (setting [7]) it was 150 mg/kg. Moreover, the ED50 is 2.2 mg/kg in data set [3] (setting [9]), 2 mg/kg in data set [4] (setting [10]) and more than 6 mg/kg in data set [4] (setting [11]).

On to `CCNC(C)Cc1cccc(C(F)(F)F)c1` (stereo not shown) [Fenfluramine, reference compound], for which the LD50 in data set [1] (setting [6]) turned out to be 42 mg/kg; in data set [1] (setting [7]), 195 mg/kg. In addition, the ED50 in data set [3] (setting [8]) is 5 mg/kg; in data set [4] (setting [10]), 1.4 mg/kg; in data set [4] (setting [11]), 4 mg/kg.

(Values after patent US4044132A, “Substituted piperazine derivative, its preparation and anorexia compositions containing it” (Synthelabo, priority 1975, dated 1977).)
